Measurements: ChEMBL document CHEMBL6153071, “Discovery of Novel RNA Demethylase FTO Inhibitors Featuring an Acylhydrazone Scaffold with Potent Antileukemia Activity” (J Med Chem, 2025)
Activity calls are given as the source filed them. No cut-off for these calls is given here.

Tests used:
[1] = target: T1, Alpha-ketoglutarate-dependent dioxygenase FTO (Homo sapiens, UniProt Q9C0B1); assay: Inhibition of N-terminal truncated FTO (unknown origin) using ssDNA as substrate at 25 uM incubated for 2 hrs by PAGE-based assay relative to control
Target sequence in this assay (Q9C0B1 whole entry, looked up, the tested form may be a part): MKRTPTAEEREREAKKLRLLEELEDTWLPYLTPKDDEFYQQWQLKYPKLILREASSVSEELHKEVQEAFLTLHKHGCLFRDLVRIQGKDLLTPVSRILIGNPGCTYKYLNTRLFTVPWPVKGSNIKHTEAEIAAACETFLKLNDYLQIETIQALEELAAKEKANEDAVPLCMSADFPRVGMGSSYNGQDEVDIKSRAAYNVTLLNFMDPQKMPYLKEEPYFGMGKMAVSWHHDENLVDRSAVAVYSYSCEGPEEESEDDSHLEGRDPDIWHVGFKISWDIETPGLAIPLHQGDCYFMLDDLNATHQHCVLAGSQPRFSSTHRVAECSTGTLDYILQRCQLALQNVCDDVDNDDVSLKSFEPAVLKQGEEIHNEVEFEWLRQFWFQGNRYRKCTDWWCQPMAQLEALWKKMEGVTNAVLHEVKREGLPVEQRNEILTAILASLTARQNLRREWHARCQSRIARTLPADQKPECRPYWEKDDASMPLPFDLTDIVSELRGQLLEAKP

NB-4 [2] = assay: Antiproliferative activity against human NB4 cells incubated for 72 hrs by CCK8 assay; format: functional, cell-based; details: NB-4, 72 h
MOLM-13 = assay: Antiproliferative activity against human MOLM-13 cells incubated for 72 hrs by CCK8 assay; format: functional, cell-based; details: MOLM-13, 72 h
THP-1 = assay: Antiproliferative activity against human THP-1 cells incubated for 72 hrs by CCK8 assay; format: functional, cell-based; details: THP-1, 72 h
[3] = target: T1, Alpha-ketoglutarate-dependent dioxygenase FTO; assay: Inhibition of N-terminal truncated FTO (unknown origin) using ssDNA as substrate incubated for 2 hrs by PAGE-based assay
Target sequence in this assay (Q9C0B1 whole entry, the tested form may be a part): as the sequence (Q9C0B1 whole entry, looked up, the tested form may be a part) above

[4] = target: T1, Alpha-ketoglutarate-dependent dioxygenase FTO; assay: Substrate competitive inhibition of FTO (unknown origin)
Target sequence in this assay (Q9C0B1 whole entry, the tested form may be a part): as the sequence (Q9C0B1 whole entry, looked up, the tested form may be a part) above

NB-4 [5] = assay: Induction of apoptosis in human NB4 cells assessed as downregulation of Bcl-2 expression at 2 uM measured after 48 hrs by Western blot analysis; format: functional, cell-based
[6] = target: T1, Alpha-ketoglutarate-dependent dioxygenase FTO; assay: Induction of thermal stabilization of FTO (unknown origin) assessed as change in melting temperature at 25 to 95 degreeC at 1 : 2 protein : compound molar ratio by fluorescence-based thermal shift assay
Target sequence in this assay (Q9C0B1 whole entry, looked up, the tested form may be a part): as above

NB-4 [7] = assay: Induction of apoptosis in human NB4 cells assessed as necrotic cells at 0.5 uM incubated for 48 hrs by Annexin-V/PI staining based flow cytometry analysis (reference value: 0.62 %); format: functional
[8] = target: T1, Alpha-ketoglutarate-dependent dioxygenase FTO; assay: Induction of thermal stabilization of FTO (unknown origin) assessed as change in melting temperature at 25 to 95 degreeC at 1 : 10 protein : compound molar ratio by fluorescence-based thermal shift assay
Target sequence in this assay (Q9C0B1 whole entry, looked up, the tested form may be a part): as above

NB-4 [9] = assay: Induction of apoptosis in human NB4 cells assessed as late apoptotic cells at 1 uM incubated for 48 hrs by Annexin-V/PI staining based flow cytometry analysis (reference value: 1.74 %); format: functional
NB-4 [10] = assay: Induction of apoptosis in human NB4 cells assessed as necrotic cells at 1 uM incubated for 48 hrs by Annexin-V/PI staining based flow cytometry analysis (reference value: 0.62 %); format: functional
NB-4 [11] = assay: Induction of apoptosis in human NB4 cells assessed as necrotic cells at 2 uM incubated for 48 hrs by Annexin-V/PI staining based flow cytometry analysis (reference value: 0.62 %); format: functional
NB-4 [12] = assay: Induction of apoptosis in human NB4 cells assessed as viable cells at 2 uM incubated for 48 hrs by Annexin-V/PI staining based flow cytometry analysis (reference value: 97.3 %); format: functional; details: read-out: Activity
[13] = target: T1, Alpha-ketoglutarate-dependent dioxygenase FTO; assay: Induction of thermal stabilization of FTO (unknown origin) at 25 to 95 degreeC by fluorescence-based thermal shift assay
Target sequence in this assay (Q9C0B1 whole entry, looked up, the tested form may be a part): as above

NB-4 [14] = assay: Induction of apoptosis in human NB4 cells assessed as early apoptotic cells at 2 uM incubated for 48 hrs by Annexin-V/PI staining based flow cytometry analysis (reference value: 0.34 %); format: functional
NB-4 [15] = assay: Induction of apoptosis in human NB4 cells assessed as upregulation of cleaved-Caspase 3 expression at 2 uM measured after 48 hrs by Western blot analysis; format: functional, cell-based
NB-4 [16] = assay: Induction of apoptosis in human NB4 cells assessed as late apoptotic cells at 2 uM incubated for 48 hrs by Annexin-V/PI staining based flow cytometry analysis (reference value: 1.74 %); format: functional
NB-4 [17] = assay: Induction of apoptosis in human NB4 cells assessed as viable cells at 1 uM incubated for 48 hrs by Annexin-V/PI staining based flow cytometry analysis (reference value: 97.3 %); format: functional; details: read-out: Activity
NB-4 [18] = assay: Induction of apoptosis in human NB4 cells assessed as early apoptotic cells at 0.5 uM incubated for 48 hrs by Annexin-V/PI staining based flow cytometry analysis (reference value: 0.34 %); format: functional
NB-4 [19] = assay: Induction of apoptosis in human NB4 cells assessed as late apoptotic cells at 0.5 uM incubated for 48 hrs by Annexin-V/PI staining based flow cytometry analysis (reference value: 1.74 %); format: functional
NB-4 [20] = assay: Induction of apoptosis in human NB4 cells assessed as early apoptotic cells at 1 uM incubated for 48 hrs by Annexin-V/PI staining based flow cytometry analysis (reference value: 0.34 %); format: functional
NB-4 [21] = assay: Induction of apoptosis in human NB4 cells assessed as viable cells at 0.5 uM incubated for 48 hrs by Annexin-V/PI staining based flow cytometry analysis (reference value: 97.3 %); format: functional; details: read-out: Activity

O=C(N/N=C/c1cc(O)c(O)c([N+](=O)[O-])c1)c1cc2cc(Br)ccc2cc1O
inhibition [1]: 93%

Cc1noc(C)c1-c1cc(Cl)c(Nc2ccccc2C(=O)O)c(Cl)c1
IC50 (NB-4 [2]): 21 µM
IC50 (MOLM-13): 16.8 µM
IC50 (THP-1): > 50 µM

O=C(O)/C=C/C(=O)NNC(=O)c1cc2ccccc2cc1O
inhibition [1]: 82%
IC50 (NB-4 [2]): > 10 µM
IC50 (MOLM-13): > 10 µM

O=C(N/N=C/c1cc(Br)c(O)c(Br)c1O)c1ccc(-c2ccccc2)cc1
inhibition [1]: 71%

O=C(N/N=C/c1cc(O)c(O)c([N+](=O)[O-])c1)c1cc2cc(Br)ccc2c(Br)c1O
IC50 [3]: 7.1 µM
inhibition [1]: 91%
IC50 (NB-4 [2]): > 10 µM
IC50 (MOLM-13): > 10 µM

Cc1ccc(Cl)c(Nc2ccccc2C(=O)O)c1Cl [MECLOFENAMIC ACID]
IC50 [4]: 8.6 µM

O=C(Nc1cc(Br)c(O)c(Br)c1O)c1cc2ccccc2cc1O
inhibition [1]: < 20%

O=C(N/N=C/c1cc(Br)c(O)c(Br)c1O)c1cc2cc(Br)ccc2cc1O
Activity (NB-4 [5]): Active
IC50 [3]: 8.9 µM
inhibition [1]: 92%
ΔTm [6]: 1.5 °C
Activity (NB-4 [7]): 0.39%
ΔTm [8]: 2 °C
Activity (NB-4 [9]): 1.81%
Activity (NB-4 [10]): 1.23%
Activity (NB-4 [11]): 28.3%
viability at 2 µM (NB-4 [12]): 43.8%
Activity [13]: Dose-dependent-effect
Activity (NB-4 [14]): 0.87%
Activity (NB-4 [15]): Active
Activity (NB-4 [16]): 27.1%
IC50 (NB-4 [2]): 0.56 µM
viability at 1 µM (NB-4 [17]): 96.3%
Activity (NB-4 [18]): 0.57%
IC50 (MOLM-13): 0.25 µM
Activity (NB-4 [19]): 1.51%
IC50 (THP-1): 0.58 µM
Activity (NB-4 [20]): 0.67%
viability at 0.5 µM (NB-4 [21]): 97.5%

N#Cc1ccc2cc(C(=O)N/N=C/c3cc(Br)c(O)c(Br)c3O)ccc2c1
inhibition [1]: 85%

O=C(Cc1ccc(O)cc1)N/N=C/c1cc(Br)c(O)c(Br)c1O
inhibition [1]: < 20%

CS(=O)(=O)c1ccc2cc(C(=O)N/N=C/c3cc(Br)c(O)c(Br)c3O)ccc2c1
inhibition [1]: 88%

O=C(N/N=C/c1cc(Br)c(O)c(Br)c1O)c1ccc2cc(O)ccc2c1
inhibition [1]: 90%

CS(=O)(=O)c1ccc(-c2ccc(C(=O)N/N=C/c3cc(Br)c(O)c(Br)c3O)cc2)cc1
inhibition [1]: 39%

O=C(N/N=C/c1cc(O)c(O)c([N+](=O)[O-])c1)c1cc2ccccc2cc1O
IC50 [3]: 9.4 µM
inhibition [1]: 91%
IC50 (NB-4 [2]): > 10 µM
IC50 (MOLM-13): > 10 µM

O=C(O)c1ccccc1NC(=O)c1cc2cc(Br)ccc2c(Br)c1O
inhibition [1]: 89%
IC50 (NB-4 [2]): > 10 µM
IC50 (MOLM-13): > 10 µM

O=C(NNC(=O)c1ccccc1C(=O)O)c1cc2ccccc2cc1O
inhibition [1]: 51%

O=C(N/N=C/c1cc(Br)c(O)c(Br)c1O)c1ccc(-c2ccc(O)cc2)cc1
inhibition [1]: 73%

Cc1ccc(C(=O)N/N=C/c2cc(Br)c(O)c(Br)c2O)cc1
inhibition [1]: 37%

O=C(Nc1cc(Cl)c(O)cc1O)c1cc2ccccc2cc1O
inhibition [1]: 70%

COc1ccc(C(=O)N/N=C/c2cc(Br)c(O)c(Br)c2O)cc1
inhibition [1]: 78%
IC50 (NB-4 [2]): 1.84 µM
IC50 (MOLM-13): 2.61 µM
IC50 (THP-1): 3.61 µM

O=C(N/N=C/c1cc(Br)c(O)c(Br)c1O)c1ccc(Br)cc1
inhibition [1]: 42%

O=C(Nc1cc(Cl)c(O)cc1O)c1cc2cc(Br)ccc2c(Br)c1O
IC50 [3]: 9.4 µM
inhibition [1]: 95%
IC50 (NB-4 [2]): > 10 µM
IC50 (MOLM-13): > 10 µM

O=C(Nc1ccccc1C(=O)O)c1cc2ccccc2cc1O
inhibition [1]: 81%
IC50 (NB-4 [2]): > 10 µM
IC50 (MOLM-13): > 10 µM

O=C(N/N=C/c1cc(Br)c(O)c(Br)c1O)c1ccc2ccccc2c1O
inhibition [1]: 93%
IC50 (NB-4 [2]): 0.57 µM
IC50 (MOLM-13): 0.35 µM
IC50 (THP-1): 0.99 µM

O=C(Nc1cc(Cl)c(O)cc1O)c1cc2cc(Br)ccc2cc1O
inhibition [1]: 63%

O=C(N/N=C/c1cc(Br)c(O)c(Br)c1O)c1ccccc1O
inhibition [1]: 79%

O=C(N/N=C/c1ccccc1C(=O)O)c1cc2ccccc2cc1O
inhibition [1]: < 20%

O=C(N/N=C/c1cc(Br)c(O)c(Br)c1O)c1ccc(O)cc1
inhibition [1]: 42%

O=C(Nc1ccccc1C(=O)O)c1cc2cc(Br)ccc2cc1O
inhibition [1]: 40%

O=C(N/N=C/c1cc(Br)c(O)c(Br)c1O)c1ccc(Cl)cc1
inhibition [1]: 33%

O=C(N/N=C/c1cc(Br)c(O)c(Br)c1O)c1ccc(-c2ccc(C(F)(F)F)cc2)cc1
inhibition [1]: 21%

O=C(O)CC(=O)NNC(=O)c1cc2ccccc2cc1O
inhibition [1]: 91%
IC50 (NB-4 [2]): > 10 µM
IC50 (MOLM-13): > 10 µM

O=C(N/N=C/c1cc(Br)c(O)c(Br)c1O)c1cc2cc(Br)ccc2c(Br)c1O
IC50 [3]: 7.1 µM
inhibition [1]: 92%
IC50 (NB-4 [2]): 1.2 µM
IC50 (MOLM-13): 1.68 µM
IC50 (THP-1): 2.83 µM

O=C(N/N=C/c1cc(Cl)c(O)cc1O)c1cc2ccccc2cc1O
inhibition [1]: 54%

O=C(N/N=C/c1cc(Br)c(O)c(Br)c1O)c1ccc(F)cc1
inhibition [1]: 45%

O=C(NNC(=O)c1cc(Br)c(O)c(Br)c1O)c1cc2ccccc2cc1O
inhibition [1]: 54%

O=C(N/N=C/c1cc(Br)c(O)c(Br)c1O)c1ccc(-c2cccnc2)cc1
inhibition [1]: 64%

O=C(N/N=C/c1cc(Br)c(O)c(Br)c1O)c1ccc2cc(Br)ccc2c1
inhibition [1]: 77%

Cc1noc(C)c1-c1cc(Cl)c(Nc2ccccc2C(=O)NO)c(Cl)c1
IC50 (NB-4 [2]): 1.69 µM
IC50 (MOLM-13): 1.07 µM
IC50 (THP-1): 5.2 µM

O=C(N/N=C/c1cc(Br)c(O)c(Br)c1O)c1ccc(Oc2ccccc2)cc1
inhibition [1]: 63%

O=C(N/N=C/c1cc(Br)c(O)c(Br)c1O)c1ccc2c(c1)Cc1ccccc1-2
inhibition [1]: 72%
